Test results reported in patent publication US20240101563A1, “NOVEL COMPOUNDS” (AC Immune SA, priority 2022, published 2024).
pIC50: −log10 of the molar value. Structures can show the parent of a compound that is named as a salt. Where two headings read alike, the source gives them in different places.

System: NLRP3 inflammasome pathway
Experiment: NLRP3 inflammasome pathway activation assay, MSU stimulation, IL-1β HTRF
Assay type: cell-based
Settings: read-out: IC50 Human monocyte-like cells MSU
Procedure: The following assays were used to determine the inhibitory activity of test compounds on the NLRP3 inflammasome pathway using common stimuli Nigericin (Invivogen) or monosodium urate crystals (MSU) (Invivogen).
Human monocyte-like cells were cultured in RPMI-1640 Glutamax medium supplemented with 10% heat inactivated FBS (Fetal Bovine Serum) and 50 U/mL penicillin-streptomycin (Life Technologies).
Human monocyte-like cells were seeded at 25000 per well in a 384-well plate and were differentiated overnight into macrophages with 10 ng/mL PMA (Phorbol Myristate Acetate). The following day, medium containing 10 ng/mL LPS (Lipopolysaccharide) was added. After 3 hours of LPS priming, concentrations of test compound in the range from […] were added 30 min prior to NLRP3 inflammasome pathway stimulation with Nigericin 3.75 μM or MSU 200 μg/mL for 3 h.
For IL-1p quantification, supernatants were analyzed using HTRF kit according to the manufacturer's instructions (Cisbio 62HIL1BPEH). Briefly, in a 384-well ProxiPlate™ microplate, 8 μl of sample was mixed, with 5 μl of Anti-IL1β Cryptate antibody (40×) and Anti-IL1β XL antibody (40×). Then, incubated overnight at RT. Reading was done using an EnVision Reader (PerkinElmer).
IC50 (concentration corresponding to 50% inhibition) were determined using GraphPad Prism 9.

[1] = Homo sapiens, 3 h, Table 8 (formula II′/II vs formula III), MSU 200 μg/mL for 3 h, IL-1β release
[2] = Homo sapiens, 3 h, Table 7, PMA-differentiated, LPS-primed cells, MSU 200 μg/mL for 3 h, IL-1β release
[3] = Table 7, PMA-differentiated, LPS-primed cells, MSU 200 μg/mL for 3 h, IL-1β release

Row | SMILES | pIC50 [2] | other results
1 | Cn1c(NCCO)nc2nc(-c3ccc(C(F)(F)F)cc3O)ccc21 [Example 82, 2-(2-((2-hydroxyethyl)amino)-1-methyl-1H-imidazo[4,5-b]pyridin-5-yl)-5-(trifluoro-methyl)phenol] | – | pIC50 [1]: < 5.82
2 | Cc1cc(Cl)cc(O)c1-c1nc2nc(N3CCC(C)(O)CC3)cnc2n1C [Example 80, 1-[2-(4-chloro-2-hydroxy-6-methyl-phenyl)-1-methyl-imidazo[4,5-b]pyrazin-5-yl]-4-methyl-piperidin-4-ol] | > 7.00 | –
3 | Cn1c(-c2ccc(C(F)(F)F)cc2O)nc2nc(N[C@@H]3CCC[C@@H](O)C3)ccc21 (relative stereo) [Example 22A, 2-(5-((3-hydroxycyclohexyl)amino)-1-methyl-1H-imidazo[4,5-b]pyridin-2-yl)-5-(trifluoromethyl)phenol] | 6.00 to 7.00 | –
4 | CCn1c(-c2c(C)cc(Cl)cc2O)nc2nc(OC)ccc21 [Example 30, 5-chloro-2-(1-ethyl-5-methoxy-1H-imidazo[4,5-b]pyridin-2-yl)-3-methylphenol] | 6.00 to 7.00 | –
5 | Cc1cc(Cl)cc(O)c1-c1nc2nc(N3CC[C@@H]4CCN(C)C[C@@H]43)cnc2n1C (relative stereo) [Example 77B, 5-chloro-3-methyl-2-[1-methyl-5-[rel-(3aS,7aR)-6-methyl-3,3a,4,5,7,7a-hexahydro-2H-pyrrolo[2,3-c]pyridin-1-yl]imidazo[4,5-b]pyrazin-2-yl]phenol] | – | pIC50 [3]: > 7.00
6 | Cc1cc(Cl)cc(O)c1-c1nc2nc(N3CCC(C)(O)C3)cnc2n1C (single isomer, unassigned) [Example 86A] | > 7.00 | –
7 | Cc1cc(Cl)cc(O)c1-c1nc2nc(N3CCC(C)(O)C3)cnc2n1C (single isomer, unassigned) [Example 86B] | – | pIC50 [3]: > 7.00
8 | CN1CCC[C@@H](Nc2nc3nc(-c4ccc(C(F)(F)F)cc4O)ccc3n2C)C1 [Example 83, (R)-2-(1-methyl-2-((1-methylpiperidin-3-yl)amino)-1H-imidazo[4,5-b]pyridin-5-yl)-5-(trifluoromethyl)phenol] | – | pIC50 [1]: < 5.82
9 | COc1cnc2c(n1)nc(-c1c(C)cc(C(F)(F)F)cc1O)n2C [Example 56, 2-(5-methoxy-1-methyl-1H-imidazo[4,5-b]pyrazin-2-yl)-3-methyl-5-(trifluoromethyl)phenol] | > 7.00 | –
10 | Cc1cc(Cl)cc(O)c1-c1nc2nc(N(C)[C@@H]3CCN(C)C3)cnc2n1C [Example 81, 5-chloro-3-methyl-2-[1-methyl-5-[methyl-[(3R)-1-methylpyrrolidin-3-yl]amino]imidazo-[4,5-b]pyrazin-2-yl]phenol] | > 7.00 | –
11 | Cc1cc(C(F)(F)F)cc(O)c1-c1nc2nc(N3CC(N(C)C)C3)cnc2n1C [Example 71, 2-(5-(3-(dimethylamino)azetidin-1-yl)-1-methyl-1H-imidazo[4,5-b]pyrazin-2-yl)-3-methyl-5-(trifluoromethyl)phenol] | 6.00 to 7.00 | –
12 | Cc1cc(Cl)cc(O)c1-c1nc2nc(N3CCC(O)C3)cnc2n1C (single isomer, unassigned) [Example 85B] | – | pIC50 [3]: > 7.00
13 | CCn1c(-c2c(C)cc(C(F)(F)F)cc2O)nc2nc(NC3CCN(C)C3)ccc21 (single isomer, unassigned) [Example 8, 2-(1-ethyl-5-((1-methylpyrrolidin-3-yl)amino)-1H-imidazo[4,5-b]pyridin-2-yl)-3-methyl-5-(trifluoromethyl)phenol] | > 7.00 | –
14 | Cc1cc(Cl)cc(O)c1-c1nc2nc(N3CCC(O)CC3)cnc2n1C [Example 78, 1-[2-(4-chloro-2-hydroxy-6-methyl-phenyl)-1-methyl-imidazo[4,5-b]pyrazine-5-yl]piperidin-4-ol] | > 7.00 | –
15 | Cc1cc(C(F)(F)F)cc(O)c1-c1nc2nc(N[C@@H]3CCN(C)C3)ccc2n1C(C)C [Example 10B, (R)-2-(1-isopropyl-5-((1-methylpyrrolidin-3-yl)amino)-1H-imidazo[4,5-b]pyridin-2-yl)-3-methyl-5-(trifluoromethyl)phenol] | > 7.00 | –
16 | CC(C)n1c(-c2ccc(C(F)(F)F)cc2O)nc2nc(NCCO)ccc21 [Example 17, 2-(5-((2-hydroxyethyl)amino)-1-isopropyl-1H-imidazo[4,5-b]pyridin-2-yl)-5-(trifluoromethyl)phenol] | 6.00 to 7.00 | –
17 | Cc1cc(C(F)(F)F)cc(O)c1-c1nc2nc(N(C)C)c(CO)cc2n1C [Example 67, 2-[5-(dimethylamino)-6-(hydroxymethyl)-1-methyl-imidazo[4,5-b]pyridin-2-yl]-3-methyl-5-(trifluoromethyl)phenol] | > 7.00 | –

Row | SMILES | pIC50 [2] | other results
18 | COc1nc2nc(-c3ccc(C(F)(F)F)cc3O)n(C)c2cc1CO [Example 51, 2-(6-(hydroxymethyl)-5-methoxy-1-methyl-1H-imidazo[4,5-b]pyridin-2-yl)-5-(trifluoromethyl)phenol] | > 7.00 | –
19 | COc1nc2nc(-c3c(C)cc(Cl)cc3O)n(C)c2cc1CO [Example 70, 5-chloro-2-[6-(hydroxymethyl)-5-methoxy-1-methyl-imidazo[4,5-b]pyridin-2-yl]-3-methyl-Phenol] | > 7.00 | –
20 | Cc1cc(Cl)cc(O)c1-c1nc2nc(N3CCN(C)CC3)cnc2n1C [Example 69, 5-chloro-3-methyl-2-(1-methyl-5-(4-methylpiperazin-1-yl)-1H-imidazo[4,5-b]pyrazin-2-yl)phenol] | 6.00 to 7.00 | –
21 | Cc1cc(C(F)(F)F)cc(O)c1-c1nc2nc(N3CCN(C)CC3)cnc2n1C [Example 68, 3-methyl-2-(1-methyl-5-(4-methylpiperazin-1-yl)-1H-imidazo[4,5-b]pyrazin-2-yl)-5-(trifluoromethyl)phenol] | 6.00 to 7.00 | –
22 | Cc1cc(C(F)(F)F)cc(O)c1-c1nc2nc(N3CCC(C)(O)CC3)cnc2n1C [Example 75, 1-[2-[2-hydroxy-6-methyl-4-(trifluoromethyl)phenyl]-1-methyl-imidazo[4,5-b]pyrazin-5-yl]-4-methyl-piperidin-4-ol] | – | pIC50 (Homo sapiens, 3 h): 6.00 to 7.00
23 | Cc1cc(Cl)cc(O)c1-c1nc2nc(OC3CC(F)(F)C3)ccc2n1C [Example 39, 5-chloro-2-(5-(3,3-difluorocyclobutoxy)-1-methyl-1H-imidazo[4,5-b]pyridin-2-yl)-3-methylphenol] | – | pIC50 (Homo sapiens, 3 h): 6.00 to 7.00
24 | Cc1cc(Cl)cc(O)c1-c1nc2nc(N3CCOCC3)cnc2[nH]1 [Example 73, 5-chloro-3-methyl-2-(5-morpholino-1H-imidazo[4,5-b]pyrazin-2-yl)phenol] | 6.00 to 7.00 | –
25 | Cc1cc(C(F)(F)F)cc(O)c1-c1nc2nc(NC3CCCC3O)ccc2n1C (stereo not shown) [Example 36] | – | pIC50 [3]: 6.00 to 7.00
26 | Cc1cc(C(F)(F)F)cc(O)c1-c1nc2nc(N[C@@H]3CCN(C)C3)c(F)cc2n1C [Example 46, (R)-2-(6-fluoro-1-methyl-5-((1-methylpyrrolidin-3-yl)amino)-1H-imidazo[4,5-b]pyridin-2-yl)-3-methyl-5-(trifluoromethyl)phenol] | > 7.00 | –
27 | Cc1cc(C(F)(F)F)cc(O)c1-c1nc2nc(N3CCOCC3)ccc2n1C [Example 79, 3-methyl-2-(1-methyl-5-morpholino-imidazo[4,5-b]pyridin-2-yl)-5-(trifluoromethyl)phenol] | > 7.00 | –
28 | CN1CCC[C@@H](Nc2ccc3cn(-c4ccc(Cl)cc4O)nc3n2)C1 [Example 43, (R)-5-chloro-2-(6-((1-methylpiperidin-3-yl)amino)-2H-pyrazolo[3,4-b]pyridin-2-yl)phenol] | > 7.00 | –
29 | Cc1cc(Cl)cc(O)c1-c1nc2nc(OCC(F)(F)F)ccc2n1C [Example 38, 5-chloro-3-methyl-2-(1-methyl-5-(2,2,2-trifluoroethoxy)-1H-imidazo[45-b]pyridin-2-yl)phenol] | 6.00 to 7.00 | –
30 | Oc1cc(C(F)(F)F)ccc1-n1cc2ccc(OC(F)F)nc2n1 [Example 44, 2-[6-(difluoromethoxy)pyrazolo[3,4-b]pyridin-2-yl]-5-(trifluoromethyl)phenol] | – | pIC50 (Homo sapiens, 3 h): 6.00 to 7.00
31 | Cc1cc(Cl)cc(O)c1-c1nc2nc(NC3CN(C)CC3(F)F)ccc2n1C (stereo not shown) [Example 62, 5-chloro-2-(5-((4,4-difluoro-1-methylpyrrolidin-3-yl)amino)-1-methyl-1H-imidazo[4,5-b]pyridin-2-yl)-3-methylphenol HCl Salt] | 6.00 to 7.00 | –
32 | CC(C)n1c(-c2ccc(C(F)(F)F)cc2O)nc2nc(N[C@@H]3CCCN(C)C3)ccc21 [Example 13, (R)-2-(1-isopropyl-5-((1-methylpiperidin-3-yl)amino)-1H-imidazo[4,5-b]pyridin-2-yl)-5-(trifluoromethyl)phenol] | 6.00 to 7.00 | –
33 | COc1ccc2c(n1)nc(-c1c(C)cc(C(F)(F)F)cc1O)n2C(C)C [Example 34, 2-(1-isopropyl-5-methoxy-1H-imidazo[4,5-b]pyridin-2-yl)-3-methyl-5-(trifluoromethyl)phenol] | 6.00 to 7.00 | –
34 | Cc1cc(Cl)cc(O)c1-c1nc2nc(N3CCOCC3)cnc2n1C [Example 66, 5-chloro-3-methyl-2-(1-methyl-5-morpholino-imidazo[4,5-b]pyrazin-2-yl)phenol] | > 7.00 | –
